Measurements published in patent US20240115547A1, “PSYCHOTROPIC AGENTS AND USES THEREOF” (LB PHARMACEUTICALS INC., priority 2021, published 2024).
Where two headings read alike, the source gives them in different places.

Assays:
dopamine D2/D3 = test: D2/D3 RO by dynamic 11C raclopride PET after oral LB-102 in healthy volunteers (Example 1); format: in vivo, human
Dopamine (e.g., D2/D3) = test: Dopamine RO % by raclopride PET after LB-102, various dosage regimens (Example 3); format: in vivo, human; conditions: group mean
[1] = Demethylation of LB-102 to amisulpride in preclinical animal models; format: in vivo
[2] = PK analysis of LB-102 in healthy human subjects, single and multiple ascending doses (Example 2); format: in vivo; conditions: for half-life / Cmax / Tmax: both sexes, plasma, oral
Description: Healthy females and males between 18 and 55 years of age with BMI≥18 and ≤30 kg/m2 were enrolled in the study. Exclusion criteria included: history or presence of psychiatric disorder, drug or alcohol abuse, history of QT prolongation or dysrhythmia, fasting blood glucose level of 126 mg/dL, or a known allergy to the drug or its metabolites. The study was planned as a two part study. Part A was comprised of 5 single ascending dose groups, each of 8 subjects. Part B was comprised of 3 multiple ascending doses, two doses a day for 7 days ([…] doses in total) each of 8 subjects. All subjects were randomized 3:1 drug:placebo. The primary endpoint of the study was safety, with pharmacokinetics as a secondary objective.
Plasma concentrations of LB-102 were obtained as a function of time for single oral administration of LB-102 to human subjects at 10 mg (larger cross), 50 mg (triangle), 100 mg (square), 150 mg (smaller cross), and 200 mg (diamond), respectively, are further provided in FIG. 3.

[3] = 50 mg LB102 oral, 2.5 h after admin
[4] = 50 mg LB102 oral, 7.5 h after admin
[5] = 50 mg LB102 oral, 23.5 h after admin
[6] = 100 mg LB102 oral, 2.5 h after admin
[7] = 100 mg LB102 oral, 7.5 h after admin
[8] = 100 mg LB102 oral, 23.5 h after admin

In the case of CCN1CCCC1CNC(=O)c1cc(S(=O)(=O)CC)c(NC)cc1OC (stereo not drawn) [LB-102], the “Caudate % RO” value (dopamine D2/D3; [3]) is reported as 26%, the “Putamen % RO” value (dopamine D2/D3; [3]) is reported as 22% and the “Caudate % RO” value (dopamine D2/D3; [4]) is reported as 43%. For the same compound, the “Putamen % RO” value (dopamine D2/D3; [4]) was 36%, the “Caudate % RO” value (dopamine D2/D3; [5]) was 50% and the “Putamen % RO” value (dopamine D2/D3; [5]) was 39%. The “Caudate % RO” value (dopamine D2/D3; [6]) was 48%, the “Putamen % RO” value (dopamine D2/D3; [6]) was 42% and the “Caudate % RO” value (dopamine D2/D3; [7]) was 77%. For the same compound, the “Putamen % RO” value (dopamine D2/D3; [7]) was 71%, the “Caudate % RO” value (dopamine D2/D3; [8]) was 74% and the “Putamen % RO” value (dopamine D2/D3; [8]) was 67%. For the same compound, the “dopamine D2/D3 RO in caudate/putamen” value (dopamine D2/D3; single oral dose of 50 mg, human subjects (FIG. 1A)) was “about 50%”, the “dopamine D2/D3 RO in caudate/putamen” value (dopamine D2/D3; single oral dose of 100 mg, human subjects (FIG. 1B)) was roughly 75% and the “Dopamine RO % (Caudate + Putamen)” value (Dopamine (e.g., D2/D3); 50 mg SS (once a day for 4 days), 8 h after Day 4 administration) was 72%. The “Dopamine RO % (Caudate + Putamen)” value (Dopamine (e.g., D2/D3); 75 mg QD, 48 h after LB-102 administration) was 37%, the demethylated to amisulpride [1] was “up to 50%” and the “AUC0-inf D1” value ([2]; 50 mg every 12 hours, D1, mean (SD)) was 1012.6 (100.4) ngh/mL. For the same compound, the “AUC0-inf D7” value ([2]; 50 mg every 12 hours, D7, mean (SD)) was 2489.1 (312.4) ngh/mL, the CL/F ([2]; 50 mg every 12 hours, mean (SD)) was 33.8 (3.1) L/h and the “AUC relative to AUC of 50 mg amisulpride” value ([2]; 50 mg oral LB-102 vs published 50 mg amisulpride) was “about 2.5 times”. For the same compound, the “AUC0-inf D1” value ([2]; 75 mg every 12 hours, D1, mean (SD)) was 1777.9 (309.0) ngh/mL, the CL/F ([2]; 75 mg every 12 hours, mean (SD)) was 34.9 (8.8) L/h and the “AUC0-inf D1” value ([2]; 100 mg every 12 hours, D1, mean (SD)) was 2152.9 (439.9) ngh/mL. For the same compound, the “accumulation across dose levels” value ([2]; MAD portion of the study) was “slight to moderate accumulation”, the trough concentrations ([2]; MAD portion of the study) was “plateaued prior to the morning dose on Day 4” and the half-life ([2]; human, 10 mg, single administration 10 mg, mean (SD), read-out: T1/2 (converted)) was 13.7 h. The Cmax ([2]; human, 10 mg, single administration 10 mg, mean, read-out: Cmax) was 24.1 ng/mL, the Tmax ([2]; human, 10 mg, single administration 10 mg, read-out: Tmax) was 3 h and the Cmax ([2]; human, 50 mg, 50 mg every 12 hours, D1, mean (SD), read-out: Cmax D1) was 126 ng/mL. The half-life ([2]; human, 50 mg, 50 mg every 12 hours, D1, mean (SD), read-out: T1/2 D1 (converted)) was 4.2 h, the Tmax ([2]; human, 50 mg, 50 mg every 12 hours, D1, read-out: Tmax D1) was 2.5 h and the Cmax ([2]; human, 50 mg, 50 mg every 12 hours, D7, mean (SD), read-out: Cmax D7) was 224 ng/mL. It also gave a half-life ([2]; human, 50 mg, 50 mg every 12 hours, D7, mean (SD), read-out: T1/2 D7 (converted)) of 14.3 h, a Tmax ([2]; human, 50 mg, 50 mg every 12 hours, D7, read-out: Tmax D7) of 2.5 h and a half-life ([2]; human, 50 mg, single administration 50 mg, mean (SD), read-out: T1/2 (converted)) of 11.9 h. The Cmax ([2]; human, 50 mg, single administration 50 mg, mean, read-out: Cmax) was 176 ng/mL, the Tmax ([2]; human, 50 mg, single administration 50 mg, read-out: Tmax) was 3 h and the Cmax ([2]; human, 75 mg, 75 mg every 12 hours, D1, mean (SD), read-out: Cmax D1) was 267 ng/mL. It also gave a half-life ([2]; human, 75 mg, 75 mg every 12 hours, D1, mean (SD), read-out: T1/2 D1 (converted)) of 4 h, a Tmax ([2]; human, 75 mg, 75 mg every 12 hours, D1, read-out: Tmax D1) of 3 h and a Cmax ([2]; human, 75 mg, 75 mg every 12 hours, D7, mean (SD), read-out: Cmax D7) of 309 ng/mL. It also gave a Tmax ([2]; human, 75 mg, 75 mg every 12 hours, D7, read-out: Tmax D7) of 2 h, a Cmax ([2]; human, 100 mg, 100 mg every 12 hours, D1, mean (SD), read-out: Cmax D1) of 325 ng/mL and a half-life ([2]; human, 100 mg, 100 mg every 12 hours, D1, mean (SD), read-out: T1/2 D1 (converted)) of 4.12 h. It also gave a Tmax ([2]; human, 100 mg, 100 mg every 12 hours, D1, read-out: Tmax D1) of 2.5 h, a half-life ([2]; human, 100 mg, single administration 100 mg, mean (SD), read-out: T1/2 (converted)) of 14.1 h and a Cmax ([2]; human, 100 mg, single administration 100 mg, mean, read-out: Cmax) of 348 ng/mL. It also gave a Tmax ([2]; human, 100 mg, single administration 100 mg, read-out: Tmax) of 3 h, a half-life ([2]; human, 150 mg, single administration 150 mg, mean (SD), read-out: T1/2 (converted)) of 12 h and a Cmax ([2]; human, 150 mg, single administration 150 mg, mean, read-out: Cmax) of 596 ng/mL. For the same compound, the Tmax ([2]; human, 150 mg, single administration 150 mg, read-out: Tmax) was 3 h, the half-life ([2]; human, 200 mg, single administration 200 mg, mean (SD), read-out: T1/2 (converted)) was 13 h and the Cmax ([2]; human, 200 mg, single administration 200 mg, mean, read-out: Cmax) was 976 ng/mL. The Tmax ([2]; human, 200 mg, single administration 200 mg, read-out: Tmax) was 3 h, the “metabolism of LB-102 to amisulpride” value ([2]; human (FIG. 2)) was less than 3% and the “increase of exposure with dose” value ([2]; oral dosing, human) was “slightly greater than dose proportional”. For the same compound, the absorption ([2]; orally dosed, human) was “rapidly absorbed”, the AUC0-inf ([2]; single administration 10 mg, mean) was 252.6 ngh/mL and the CL/F ([2]; single administration 10 mg, mean (SD)) was 42.4 (12.6) L/h. For the same compound, the AUC0-inf ([2]; single administration 50 mg, mean) was 1595.9 ngh/mL, the CL/F ([2]; single administration 50 mg, mean (SD)) was 31.7 (3.8) L/h and the AUC0-inf ([2]; single administration 100 mg, mean) was 2809.8 ngh/mL. The CL/F ([2]; single administration 100 mg, mean (SD)) was 36.6 (6.9) L/h, the AUC0-inf ([2]; single administration 150 mg, mean) was 4636.6 ngh/mL and the CL/F ([2]; single administration 150 mg, mean (SD)) was 33.1 (5.3) L/h. The AUC0-inf ([2]; single administration 200 mg, mean) was 7002.1 ngh/mL, the CL/F ([2]; single administration 200 mg, mean (SD)) was 28.9 (3.4) L/h and the AUC ([2]; single oral administration of 50 mg to human subjects (FIG. 4B)) was 1,595 ngh/mL.
